Laboratory results taken from patent US20080038374A1, “New Use” (Lipopeptide AB, priority 2004, published 2008).

Legend:
hCAP18 = assay: Expression of hCAP18 mRNA in human primary keratinocytes by Real-Time PCR; type: cell-based
Method: Human neonatal epidermal keratinocytes were obtained from Cascade Biologics, Inc. (Lot # 1C1145; Port-land, OR) and cultured in EpiLife serum-free keratinocyte growth medium (Cascade Biologics, Inc.) containing growth supplements and a calcium concentration of 0.06 mM. Cells at passage 3 were allowed to grow for three days to approximately 60% confluence. For calcium switch experiments, 1.5 mM CaCl2 (added from a 1 M stock solution) was added to the plates and after 48 hours the cells were regarded as differentiated (observed as an induction of mRNA expression of the two keratinocyte markers transglutaminase and cellular retinoic acid-binding protein II). The compounds assayed were 25-hydroxy-cholecalciferol (25-OH-D3), 1,25-dihydroxycholecalciferol (1,25-(OH)2-D3), and calcipotriol/MC 903 (Leo Pharmaceutical, Denmark). Their effect on hCAP18 expression was monitored by quantitivate PCR analysis.
Keratinocytes were grown as above and treated with said compounds for 4 h. RNA was extracted with the RNeasy kit (Qiagen) and reverse transcribed with a first strand synthesis kit (Amersham-Pharmacia). RNA was quantified by Real-Time PCR on an ABI Prism 7700 (Applied Biosystems) using 5 ng of cDNA according to standard protocols. The samples were evaluated in triplicates. Sequences were 5′-[…]-3′ and 5′-[…]-3′ for the primers, and 5′-[…]-3′ for the fluorigenic probe. The samples were normalized by quantification of 18S-RNA (Assay on Demand, Applied Biosystems).
To assess the specificity of the vitamin D regulation on the hCAP18 gene, the vitamin D3 precursor 7-dehydrocholesterol (7-DHC) was assayed at a concentration of 1 μM as in Example 1. 7-DHC had no effect on hCAP18 expression. […] Assays were performed and measured as above. The effect of 1,25-(OH)2-D3 is shown for comparison.

dermatitis = conditions: topical, 0.03-1.0 μg/g of composition; type of dermatitis not stated; cited from earlier work
hCAP18 promoter = assay: Stimulation of the hCAP18 promoter at different concentrations (FIG. 4); type: cell-based, human; conditions: tested at 1, 10, 100 and 1000 nM
Method: To assess whether physiological levels were sufficient to induce the stimulation of the hCAP18 promoter, the study was performed at the different concentrations 1, 10, 100 and 1000 nM of 1,25-(OH)2-D3 and 25-OH-D3 (FIG. 4). […] The physiologic serum concentration of 25-OH-vitamin D3 is between 20 nM and 125 nM, whereas the 1,25-(OH)2-D3 is present in pM concentration. A dosage form of a vitamin D compound for topical administration includes for instance about 1-100, preferably 5-50 μg vitamin D compound per gram composition.

acute wounds = conditions: Wistar rats, intraperitonial; cited from earlier work
angiogenesis = conditions: cited from earlier work

## C=C1/C(=C\C=C2/CCC[C@]3(C)[C@@H]([C@H](C)/C=C/[C@H](C)C(C)(C)O)CC[C@@H]23)C[C@@H](O)C[C@@H]1O [1,25-(OH)2-D2, 1,25-dihydroxyergocalciferol]
hCAP18; concentration not given
  activity on hCAP18 expression compared with 1,25-(OH)2-D3: activity comparable to 1,25-(OH)-D3

## C=C1/C(=C\C=C2/CCC[C@]3(C)[C@@H]([C@H](C)CCCC(C)C)CC[C@@H]23)C[C@@H](O)C[C@@H]1O [1α-OH-cholecalciferol, 1-alpha-hydroxycholecalciferol]
dermatitis
  effect on dermatitis: marked effect

## CC(C)CCC[C@@H](C)[C@H]1CC[C@H]2C3=CC=C4C[C@@H](O)CC[C@]4(C)[C@H]3CC[C@]12C [7-DHC, 7-dehydrocholesterol]
hCAP18; 1 μM, as in Example 1
  effect on hCAP18 expression: no effect

## C=C1CC[C@H](O)C/C1=C/C=C1\CCC[C@]2(C)[C@@H]([C@H](C)CC[C@@H](O)C(C)(C)O)CC[C@@H]12 [24,25-dihydroxycholecalciferol]
dermatitis
  effect on dermatitis: no effect

## C=C1CC[C@H](O)C/C1=C/C=C1\CCC[C@]2(C)[C@@H]([C@H](C)CCCC(C)(C)O)CC[C@@H]12 [25-OH-D3, 25-hydroxy-cholecalciferol]
hCAP18 promoter
  level down to which a substantial portion of stimulation remained: 10 nM

## [Ca+2].[Cl-].[Cl-] [calcium, CaCl2]
hCAP18; 1.5 mM CaCl2, 48 hours, keratinocytes
  increase of hCAP18 expression by induction of differentiation: about 1.5 fold

## C=C1CC[C@H](O)C/C1=C/C=C1\CCC[C@]2(C)[C@@H]([C@H](C)CCCC(C)C)CC[C@@H]12 [cholecalciferol]
dermatitis
  effect on dermatitis: no effect
Acute wounds
  re-epithelization of acute wounds: accelerates
  wound breaking strength: increases

## C=C1CC[C@H](O)C/C1=C/C=C1\CCC[C@]2(C)[C@@H]([C@H](C)/C=C/[C@H](C)C(C)C)CC[C@@H]12 [ergocalciferol]
dermatitis
  effect on dermatitis: no effect

## LL-37/hCAP18: endogenous 37 amino acid antimicrobial peptide released by proteolytic cleavage of hCAP18 (LLGDFFRKSKEKIGKEFKRIVQRIKDFLRNLVPRTES; Antibacterial peptide LL-37; UniProt P49913 134-170, looked up)
angiogenesis
  angiogenesis: induces functionally important angiogenesis
